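Test compounds were applied to cells in 96-well plates for 48 hours at 5 doses. GI50: concentration for 50% inhibition of growth. At the TGI there is no net growth.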
Tests used:
Experiment in all cases: inhibition of tumour cell growth, NCI panel, 48 h
SK-OV-3 ovarian = tested on: SK-OV-3 ovarian
OVCAR-8 ovarian = tested on: OVCAR-8 ovarian
SF-268 CNS = tested on: SF-268 CNS
NCI/ADR-RES ovarian = tested on: NCI/ADR-RES ovarian
SK-MEL-28 melanoma = tested on: SK-MEL-28 melanoma
SF-295 CNS = tested on: SF-295 CNS
UACC-257 melanoma = tested on: UACC-257 melanoma
RXF 393 renal = tested on: RXF 393 renal
SK-MEL-2 melanoma = tested on: SK-MEL-2 melanoma
HOP-92 NSCLC = tested on: HOP-92 NSCLC

SMILES	GI50 (SK-OV-3 ovarian) [µM]	TGI (SK-OV-3 ovarian) [µM]	GI50 (OVCAR-8 ovarian) [µM]	TGI (OVCAR-8 ovarian) [µM]	GI50 (SF-268 CNS) [µM]	TGI (SF-268 CNS) [µM]	GI50 (NCI/ADR-RES ovarian) [µM]	TGI (NCI/ADR-RES ovarian) [µM]	GI50 (SK-MEL-28 melanoma) [µM]	TGI (SK-MEL-28 melanoma) [µM]	GI50 (SF-295 CNS) [µM]	TGI (SF-295 CNS) [µM]	GI50 (UACC-257 melanoma) [µM]	TGI (UACC-257 melanoma) [µM]	GI50 (RXF 393 renal) [µM]	TGI (RXF 393 renal) [µM]	GI50 (SK-MEL-2 melanoma) [µM]	TGI (SK-MEL-2 melanoma) [µM]	GI50 (HOP-92 NSCLC) [µM]	TGI (HOP-92 NSCLC) [µM]
CC(C)OP(=O)(O)c1ncc(-c2ccc(C(F)(F)F)cc2)c(NC2CCCCCC2)n1	> 100	> 100	> 100	> 100	> 100	> 100	> 100	> 100	> 100	> 100	> 100	> 100	> 100	> 100	> 100	> 100	–	–	–	–
CCOC1Oc2ccc(C)cc2C(=O)/C1=C\Nc1ccc(S(N)(=O)=O)cc1 (centres undefined)	17.7	> 50	9.97	27.7	16.1	> 50	6.14	18.5	14.5	> 50	12.6	35.7	–	–	8.92	21.3	24.3	> 50	8.9	29.6
CCN(c1ccccc1)[C@H]1C(=O)N(c2ccc([N+](=O)[O-])cc2)[C@H]1c1ccc(OC)cc1	–	> 100	–	> 100	–	> 100	–	–	–	> 100	–	> 100	–	> 100	–	> 100	–	> 100	–	81.8
Cc1ccc(OC(=O)N2C/C(=C\c3ccccc3)C(=O)/C(=C/c3ccccc3)C2)cc1	–	86.2	–	54.5	–	98.5	–	–	–	> 75	–	47.6	–	69.5	–	37.5	–	> 100	–	> 100
COc1cc2cc(Oc3cccc(NC(=O)Nc4cc(C(F)(F)F)cc(C(F)(F)F)c4)c3)c(C)nc2cc1OC	1.71	3.47	1.63	4.22	1.62	3.68	–	–	1.19	3.09	0.481	1.94	2.48	5.49	2.06	4.79	1.82	4.24	1.12	3.9
COc1ccc(C2=Nn3c(nnc3-n3nc(C)cc3C)SC2)cc1	0.0908	> 100	0.0691	> 100	0.0806	> 100	0.0536	> 100	0.294	> 100	–	–	–	–	0.0599	> 100	0.0599	> 100	0.0245	0.836
COc1cc2c3c(n(CCCNCCCNCCCN)c(=O)c2cc1OC)-c1cc2c(cc1C3=O)OCO2	> 100	> 100	> 100	> 100	> 100	> 100	–	–	> 100	> 100	40.6	> 100	> 100	> 100	> 100	> 100	> 100	> 100	> 100	> 100
Cc1cc(C)nc(NS(=O)(=O)c2ccc(Nc3c4ccccc4nc4c(C(=O)NCCN(C)C)cccc34)cc2)n1	–	–	–	20.5	–	20.1	–	–	–	20.4	–	14.9	–	–	–	20.2	–	19.1	–	–
CCCCCC[C@H]1C(=O)O[C@H](C)[C@H](NC(=O)c2cccc(NC=O)c2OC)C(=O)O[C@@H](C)[C@@H]1OC(=O)CCC (tested in a mixture with another compound)	24.2	66.1	12.1	33.4	13.7	36.6	8.63	34.2	16.2	33.3	5.99	20.8	2.81	11.9	15.3	32.4	18.1	60.5	–	–
Cc1cc(Cl)ccc1NC(=O)C1C(=O)N(c2ccc(Cl)cc2C)C(=O)/C1=N\NC(N)=S (centres undefined)	–	–	–	> 100	–	> 100	–	–	–	–	–	86.4	–	> 100	–	54.1	–	–	–	46.6
OCC(O)C(O)C(O)c1nn(-c2ccc(F)cc2)c2nc3cc(Cl)c(Cl)cc3nc12 (centres undefined)	–	46.4	–	23	–	43.3	–	–	–	41.9	–	> 100	–	55.1	–	36.9	–	39.2	–	–
Nc1ncc2ncn(C3CCC(CO)O3)c2n1 (centres undefined)	–	> 100	–	> 100	–	> 100	–	> 100	–	> 100	–	> 100	–	> 100	–	–	–	> 100	–	–
Cc1cc(S(N)(=O)=O)c(S/C(=N\NS(=O)(=O)c2ccccc2)c2ccc(Cl)cc2)cc1Cl	> 100	> 100	> 100	> 100	> 100	> 100	> 100	> 100	> 100	> 100	22.5	> 100	54.5	> 100	–	–	–	–	30.3	84.9
COc1cc(N(C)C)c(OC)cc1C=C1C=CC=C1	–	> 100	–	> 100	–	> 100	–	> 100	–	> 100	–	> 100	–	–	–	> 100	–	> 100	–	> 100
COc1ccc(-c2cc(/C=C/C(=O)c3ccc(N)cc3)[nH]n2)cc1	4.72	18	2.44	15.4	1.82	5.31	2.86	15.5	1.87	4.01	3.09	13.1	1.9	4.21	1.67	4.19	–	–	–	–
O=CN1N=C(c2cccc(Nc3ccnc4cc(Cl)ccc34)c2)CC1c1ccc(Cl)cc1 (centres undefined)	3.48	56.9	3.8	> 100	4.37	> 100	0.759	3.94	5.63	> 100	1.06	8.12	–	–	3.08	> 100	2.05	> 100	–	–
C[C@H]1CC[P+](C)(c2ccccc2)C1 (some centres undefined)	–	> 100	–	> 100	–	–	–	–	–	> 100	–	> 100	–	> 100	–	> 100	–	> 100	–	–
